Patent publication US5344843A, “Cat-1 inhibitors, pharmaceutical compositions and methods of use” (Hoffman-La Roche Inc., priority 1992, dated 1994)

Columns and labels:
[1] = target: T1, CAT-1 (carnitine acyltransferase 1) (Rattus norvegicus, UniProt Q63704); experiment: Primary Screen--Inhibition of CAT-1 in isolated mitochondria; assay type: biochemical; settings: rat heart mitochondria, reduction of palmitoyl carnitine formation by 50%; read-out: Primary Screen IC50
T1 construct: This preparation is used as the isolated mitochondrial preparation; from tissue; host or cells: rat heart (atria removed), isolated mitochondria
T1 sequence (Q63704 1-772): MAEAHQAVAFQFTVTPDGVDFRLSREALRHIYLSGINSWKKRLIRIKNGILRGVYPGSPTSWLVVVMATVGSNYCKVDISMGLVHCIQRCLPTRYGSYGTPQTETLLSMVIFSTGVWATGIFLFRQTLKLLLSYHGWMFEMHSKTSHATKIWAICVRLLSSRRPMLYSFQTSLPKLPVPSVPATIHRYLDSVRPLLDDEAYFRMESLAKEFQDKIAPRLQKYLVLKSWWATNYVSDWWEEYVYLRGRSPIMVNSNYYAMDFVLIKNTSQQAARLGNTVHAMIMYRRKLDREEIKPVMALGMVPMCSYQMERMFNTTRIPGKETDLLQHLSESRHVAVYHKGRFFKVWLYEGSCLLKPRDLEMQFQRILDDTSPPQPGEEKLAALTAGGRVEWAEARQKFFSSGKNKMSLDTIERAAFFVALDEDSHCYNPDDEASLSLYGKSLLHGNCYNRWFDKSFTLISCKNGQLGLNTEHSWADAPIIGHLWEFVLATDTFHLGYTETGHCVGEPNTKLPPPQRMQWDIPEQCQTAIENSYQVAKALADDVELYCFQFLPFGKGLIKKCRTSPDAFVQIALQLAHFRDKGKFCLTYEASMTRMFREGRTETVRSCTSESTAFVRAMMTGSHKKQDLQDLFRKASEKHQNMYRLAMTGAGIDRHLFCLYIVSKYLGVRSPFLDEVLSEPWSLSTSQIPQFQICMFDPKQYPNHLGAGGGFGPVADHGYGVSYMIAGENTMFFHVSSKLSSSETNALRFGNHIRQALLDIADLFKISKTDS
Experimental: Primary Screen--Inhibitors of CAT-1 in 1Mitochondria
(a). Preparation of Mitochondria
The heart is rapidly removed from an anesthetized rat (sodium pentabarbitol) and placed in ice-cold homogenization buffer (sucrose, 250 mM; Tris, 10 mM; EDTA, 1 mM; BSA, 0.01%; pH=7.4). The atria and extraneous tissue are removed and the remainder is chopped with scissors. The pieces are rinsed in homogenization buffer before being homogenized in 10 mL of the same buffer for 5-7 seconds. The homogenate is then diluted with homogenization buffer (40 total volume) and centrifuged at 200 g for 20 minutes. The supernatant is withdrawn and centrifuged at 7000 g for 20 minutes and the resulting pellet is isolated, resuspended in 40 mL of homogenization buffer and centrifuged once more at 7000 g for 20 minutes. The isolated pellet is resuspended in 10 mL of homogenization buffer and stored at 4° C. until use. This preparation is used as the isolated mitochondrial preparation.
(b). Inhibition of CAT-1 assay
Isolated mitochondria (20 μL) are incubated with 60 μL of Tris/sucrose buffer (sucrose, 500 mM; Tris, 20 mM; KCl, 100 mM; EDTA, 2 mM; pH=7.0 plus 83 μM palmitoyl CoA, and BSA, 0.8 mg/mL and 10^-4 to 10^-10 M of the drug to be tested. After 10 minutes at 30° C., the reaction is started by addition of 10 μL of ^3 H-carnitine (final concentration=250 μM). After 5 minutes, the reaction is terminated by the addition of ice cold 70% perchloric acid (PCA). The precipitated solids so formed, containing the insoluble product of the enzyme palmitoyl carnitine, are captured on filter paper. The filter paper is washed with 7% PCA, then dried and placed in scintillation vials with 10 mL of scintillant (Aquasol, New England Nuclear) and counted for radioactivity. The rate of the reaction is assessed by the difference in radioactivity between zero time and five minutes in the absence of test compound. The ability of test compounds at selected concentrations to inhibit CAT-1 is determined by their ability to reduce the formation of the radioactive product. The IC50 of the test compound is the concentration of test compound that reduces the formation of radioactive product by 50%.

[2] = target: T1, CAT-1 (carnitine acyltransferase 1); experiment: Secondary Screen--Inhibition of CAT-1 in intact cardiac myocytes (hypoxia-induced increase in long-chain acylcarnitines); assay type: cell-based; settings: isolated rat cardiac myocytes, 50% inhibition of hypoxia-induced increase in long-chain acylcarnitines
Experimental: Secondary Screen--Inhibition of CAT-1 in intact Cardiac Myocytes
(a) Preparation of Isolated Rat Cardiac Myocytes
Four hearts are excised from anesthetized rats and perfused retrogradly via the Langendorf technique. Each heart receives 100 mL of Krebs (NaCl, 118.4 mM; KCL, 4.6 mM; NaH2 PO4, 1.0 mM; NaHCO3, 20 mM; MgSO4, 2 mM; CaCl2, 50 μM; glucose, 11.0 mM), 100 mL of Ca++ free Krebs and finally 100 mL of 0.5% collagenase (Boehringer Mannhelm, type 1) in Hepes (NaCl, 115 mM; KCl, 5 mM; sucrose, 35 mM; glucose, 10 mM; Hepes, 10 mM; taurine, 4 mM; MgSO4, 2 mM; CaCl2, 50 μM). After these perfusions, the hearts are chopped into pieces, approx. 0.5 cm×0.5 cm and placed in four 125 mL plastic bottles along with 25 mL of collagenase/Hepes situated in a water bath maintained at 35° C. The pieces of cardiac tissue in each bottle are agitated by using a Harvard respirator connected to four glass syringes, which sucks the tissue up and down each tube during each respiratory cycle. After fifteen minutes, the collagenase/Hepes is removed and replaced with fresh collegenase/Hepes and the process repeated. The collegenase/Hepes from the subsequent fifteen minute harvests are centrifuged at 500 g to pellet the cells which are then resuspended in Hepes buffer. After six harvests, all cells are pelleted, resuspended in 2×26.5 mL of Hepes plus BSA (350 mg) and layered on top of 2×percoll gradients (21.15 mL percoll, 2.35 mL NaCl, 6 drops acetic acid). This is centfifuged at 3000 g for eight minutes forming a percoll gradient which results in viable cells being separated from damaged cells. The viable cells are removed, washed with Hepes and finally resuspended in 25 mL of Hepes.
The isolated cardiac myocytes (2 mL; approximately 1×10^6 cells) are separated into six glass pods. Into four of these are placed selected concentrations of the compound to be tested, and the cells are incubated for twenty minutes, after which the pods are centrifuged at 300 g for three minutes. 300 μL of normoxic Hepes is placed in one of the pods not containing compound and then all pods are placed in a hypoxic chamber (N2 atmosphere). Oxygen is fed via small bore steel tubes to the pod containing the normoxic buffer, while the other five pods receive pre-purified argon (99.998% pure). After two minutes, Hepes (pre-gassed with argon for at least twelve hours) is fed into the five hypoxic pods. This hypoxic environment (pO2 <10 mm Hg) is maintained for twenty minutes, after which the cells and pods are frozen by contact with a metal block precooled in liquid N2. The pods are then removed from the chamber and stored at -70° C. The carnitine assay is performed, as described below in (c), to determine the amount of long-chain acylcarnitine in the cells from the normoxic, hypoxic and hypoxic plus compound samples. […] Thus the IC50 in this screen is the concentration of test compound which produces a 50% inhibition of the hypoxia-induced increase in long-chain acylcarnitines.
(c) Long-chain Acylcarnitine Assay.
The frozen cell samples are thawed, mixed and homogenized with 40 μL of 70% PCA. The homogenate is transferred to eppendorf tubes while the homogenization tube and the glass pod is rinsed with 500 μL of 7% PCA, with the rinse being added to the eppendorf tube. This is then centrifuged at 1000 g for two minutes to pellet the precipitate (containing the long-chain acylcarnitine) and the supernatant is discarded. The pellet is washed twice with 500 μL of 7% PCA, the supernatants being discarded. The pellet is then hydrolyzed (to separate the acyl unit from carnitine to yield free carnitine) by the addition of 200 μL of aleionized H2 O and 50 μL of 5N KOH and incubated at 70° C. for ninety minutes.

Q: What does the source list for CN(C)CCOC(=O)C(=O)c1ccc(OCCOc2ccc3ccccc3c2)s1 [Example 6, 5-[[2-(2-naphthalenyloxy)ethyl]oxy]-alpha-oxo-2-thiopheneacetic acid 2-(dimethylamino)ethyl ester]?
A: IC50 [1]: 40 nM; IC50 [2]: 300 nM
